The source of these data is patent US6756409B2, “Phenoxyphenyl alkanesulphonates” (priority 2001, dated 2004).

The nature of data set [1]: Microsomal stability investigations. It is filed as in vitro ADME. The settings on record: maximum possible bioavailability extrapolated from rat liver microsomes, 37° C., 15 minutes. As to the method: 4. Microsomal Stability Investigations
The metabolic stability of the compounds according to the invention can be measured in rat liver microsomes (in analogy to J. Pharmacol. Exp. Ther. 1997, 283, 46-58).
To determine the microsomal stability and extrapolate to the maximum possible bioavailability (Fmax) owing to the first-pass effect in the liver (phase 1 reactions), the substance is incubated in low concentration with microsomal protein, with addition of cofactors, at 37° C. for 15 minutes.
The incubation and the sampling take place on a modified automatic pipettor from Canberra Packard.

A further data set addresses T1, rat CB1 receptor (Rattus norvegicus, UniProt P20272).
T1 construct: expressed in transfected cells; host or cells: CHO (CHOluc9-derived reporter line, by analogy with the CB2 line)
The data set is described as follows: Rat CB1 luciferase reporter gene test. It is filed as cell-based. The settings on record: rat CHOCB1 reporter cell line, forskolin-stimulated luciferase activity. As to the method: 1. Rats CB1 Luciferase Reporter Gene Test
Stock cultures of a rat CHOCB1 reporter cell line were prepared by the method described in WO-A-98/37061, page 55 et seq.
The following test protocol was used for the substance screening: the stock cultures were cultivated in 50% of Dulbecco's modified Eagle medium/50% F-12 (DMEM/F12) with 10% FCS at 37° C. under 10% CO2 and split 1:10 after 2 to 3 days in each case. Test cultures were seeded with 5000 cells per well in 96-well plates and cultured at 37° C. for 70 hours. The cultures were then cautiously washed with phosphate-buffered saline and reconstituted with serum-free Ultra-CHO medium (Bio-Whittaker). The substances dissolved in DMSO were diluted 1× in medium and pipetted into the test cultures (maximum DMSO final concentration in test mixture: 0.5%). 20 minutes later, forskolin was added and the cultures were then incubated in an incubator at 37° C. for 3 hours. […] Immediately thereafter luciferase substrate solution (2.5 mM ATP, 0.5 mM luciferin, 0.1 mM coenzyme A, 10 mM tricine, 1.35 mM MgSO4, 15 mM DTT, pH 7.8) was added and briefly shaken, and the luciferase activity was measured using a Hamamatsu camera system. […]
The IC50 values were calculated using the GraphPadPrism program (Hill equation, specifically: one-site competition).
On the technique in general: In a reporter assay the amount or activity of a reporter protein is the signal.

In data set [2] the test system is chronic mechanical hyperalgesia in axotomized rats. The data set is described as follows: Axotomy of sciatic branches in the rat (chronic pain model). It is filed as in vivo. The settings on record: orally, acute administration, 60 minutes before the test. On the procedure:
7. Axotomy of Sciatic Branches in the Rat (Chronic Pain Model)
Under pentobarbital anaesthesia, the trifurcation of a sciatic nerve is exposed, and the peroneal and tibial branches are axotomized after the nerves have been ligated proximal of the axotomy site. Control animals undergo a sham operation. After the operation, the axotomized animals develop chronic mechanical hyperalgesia. This hyperalgesia is tested, comparing with sham-operated animals, with the aid of a pressure transducer (electronic von Frey anesthesiometer, IITC Inc.—Life Science Instruments, Woodland Hills, Calif., USA).
The substance is administered by various administration routes (i.v., i.p., orally, i.t., i.c.v., transdermally) at various times before the pain testing.

Data set [3] is described as follows: Pharmacokinetics in the rat. The format is in vivo. The settings on record: for AUCstand / Cmax,stand: standardized to 1 mg/kg; for half-life: terminal half-life. On the procedure:
5. Pharmacokinetics in the Rat
The substance is infused through a Braunüle in a lateral tail vein directly into the blood stream over 15 minutes. A calibrated 20 ml syringe is used for accurate administration of the chosen dose and volume. A Braun Melsungen No. 152440/1 pump is used for the infusion.
The substance is administered as bolus by gavage.
Blood samples are collected from catheterized animals (jugular vein) in heparinized tubes. The blood is centrifuged and the plasma is prepared in a suitable manner for analysis (LC-MS-MS). The plasma is stored at <−15° C. until analysed.
AUCstand: the area, standardized to a dose of 1 mg/kg, under the plasma concentration/time curve;
Cmax,stand: the maximum plasma concentration after a single administration, standardized to a dose of 1 mg/kg;
tmax: the time at which the maximum plasma concentration is reached after a single dose;
t1/2: terminal half-life;
F: bioavailability; in this case the percentage, compared with i.v. administration, of the dose which is systemically available;
VSS: apparent volume of distribution at the steady state.

The target in the next data set is T2, CB1 receptor (Rattus norvegicus, UniProt P20272).
T2 construct: from tissue; host or cells: whole animal (rat), in vivo
The data set is described as follows: Rat hypothermia agonism test. The format is in vivo. The settings on record: oral administration. On the procedure: The in vivo agonistic effect on the CB1 receptor was examined in the rat hypothermia assay.
Five minutes after determining the basal body temperature via an oesophageal temperature probe, the test substance is administered (orally). A control group receives, likewise orally, only the solvent for the test substances (Cremophors EL 1-10%+distilled water). The body temperature is measured 120 and 240 minutes after oral administration. The size of the group for each dose is 5-7 animals (rats).
Rat Hypothermia Agonism Test

T1 sequence (P20272 whole entry): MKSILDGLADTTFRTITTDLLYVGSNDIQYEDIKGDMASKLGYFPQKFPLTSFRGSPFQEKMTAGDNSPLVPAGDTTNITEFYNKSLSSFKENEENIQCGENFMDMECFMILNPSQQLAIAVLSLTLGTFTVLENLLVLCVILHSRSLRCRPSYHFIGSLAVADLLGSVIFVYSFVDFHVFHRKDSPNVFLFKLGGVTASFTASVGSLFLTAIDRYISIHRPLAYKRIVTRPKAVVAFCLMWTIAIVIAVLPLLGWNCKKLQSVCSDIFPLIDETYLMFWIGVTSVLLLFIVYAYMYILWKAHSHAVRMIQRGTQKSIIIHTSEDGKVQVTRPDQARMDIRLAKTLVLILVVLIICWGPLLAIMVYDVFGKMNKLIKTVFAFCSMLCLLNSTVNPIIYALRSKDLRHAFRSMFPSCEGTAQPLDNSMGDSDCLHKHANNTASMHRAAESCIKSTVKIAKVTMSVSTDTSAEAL
T2 sequence (P20272 whole entry): as above

Turning to `O=S(=O)(CCCC(F)(F)F)Oc1cccc(Oc2ccccc2OC(F)(F)F)c1` [Example 17], in data set [1], the Fmax is 40%. The IC50 against rat CB1 receptor is 0.81 nM.

Consider `Cc1c(Cl)cccc1Oc1cccc(OS(=O)(=O)CCCC(F)(F)F)c1` [Example 15], for which the Fmax in data set [1] is 4%.

In the case of `O=S(=O)(CCCC(F)(F)F)Oc1cccc(Oc2cccc(C(F)(F)F)c2Cl)c1` [Example 22], the “minimally effective dose reducing hyperalgesia” value in data set [2] stood at 1 mg/kg. Besides, the AUCstand in data set [3] (i.v. infusion, dose 0.3 mg/kg) came to 0.307 kg·h/L; in data set [3] (oral, dose 3 mg/kg), 0.102 kg·h/L. The “Cmax,stand” value in data set [3] (i.v. infusion, dose 0.3 mg/kg) stood at 0.5978 kg/L; in data set [3] (oral, dose 3 mg/kg), 0.0198 kg/L. In data set [3] (oral, dose 3 mg/kg, bioavailability compared with i.v. administration), the F was 33%. In addition, the Vd in data set [3] (plasma, iv, i.v. infusion, dose 0.3 mg/kg, apparent volume of distribution at steady state, read-out: VSS) was determined as 4.12 L/kg. For the same molecule, the half-life is 1.6 h in data set [3] (plasma, iv, i.v. infusion, dose 0.3 mg/kg) and 2.36 h in data set [3] (plasma, oral, dose 3 mg/kg). In data set [3] (plasma, oral, dose 3 mg/kg), the Tmax was 2.29 h. In addition, on CB1 receptor, the “ED−1° C. (effective dose for reducing the body temperature by 1° C.)” value came out at 10 mg/kg.

The IC50 is the concentration needed to halve the response being measured. Lower therefore signals inhibition by little substance. By half-life is commonly meant the time needed for the level to fall by half in the phase considered. High values mean slow loss, low ones fast loss. Usually Tmax stands for the time from dosing to the highest level.
